Legend:
[1] = tested on: Ecol 35218; experiment: FISH detection of live and killed bacteria with or without protease digestion; format: cell-based, E. coli
[2] = tested on: Saur 12600; experiment: Plate count of live bacteria after killing treatment; format: cell-based, S. aureus
[3] = tested on: Kpne 13882; experiment: FISH detection of live and killed bacteria with or without protease digestion; format: cell-based, K. pneumoniae
[4] = tested on: Saur 12600; experiment: as above; format: cell-based, S. aureus
[5] = tested on: Paer 27853; experiment: as above; format: cell-based, P. aeruginosa
[6] = tested on: Kpne 13882; experiment: Plate count of live bacteria after killing treatment
[7] = tested on: Paer 27853; experiment: as above; format: cell-based, P. aeruginosa
[8] = tested on: Ecol 35218; experiment: as above; format: cell-based, E. coli
[9] = 1 hour, with protease (0.2 mg/mL Pronase)
[10] = 1 hour, with protease (0.2 mg/mL Pronase), cells live or pre-killed as labelled
[11] = 4 hour, with protease (0.2 mg/mL Pronase)
[12] = 4 hour, with protease (0.2 mg/mL Pronase), cells live or pre-killed as labelled
[13] = 0 hr, after gentamycin 100 micrograms per mL 1 hour or 80% ethanol
[14] = gentamycin 1 hour or 80% ethanol

## gentamycin
[1]; 1 hour, no protease
  FISH Conc: 8.8 × 10^6 cells/mL
  Positive Detection?: Yes (A detection threshold of 1×10^4 cells per mL was used as the threshold for a positive call in the FISH assay)
[1]; [9]
  Positive Detection?: Yes (A detection threshold of 1×10^4 cells per mL was used as the threshold for a positive call in the FISH assay)
[1]; [10]
  FISH Conc: 5.5 × 10^5 cells/mL
[1]; 4 hour, no protease
  FISH Conc: 4.8 × 10^5 cells/mL
  Positive Detection?: Yes (A detection threshold of 1×10^4 cells per mL was used as the threshold for a positive call in the FISH assay)
[1]; [11]
  Positive Detection?: Yes (A detection threshold of 1×10^4 cells per mL was used as the threshold for a positive call in the FISH assay)
[1]; [12]
  FISH Conc: 4.5 × 10^5 cells/mL
[2]; [13]
  Conc of live bacteria by plating: 2 × 10^3 cfu/mL
[2]; [14]
  Killing by plating, in words: a significant number of S. aureus remained alive
[3]; 1 hour, no protease
  FISH Conc: 1.7 × 10^5 cells/mL
  Positive Detection?: Yes (A detection threshold of 1×10^4 cells per mL was used as the threshold for a positive call in the FISH assay)
[3]; [9]
  Positive Detection?: Yes (A detection threshold of 1×10^4 cells per mL was used as the threshold for a positive call in the FISH assay)
[3]; [10]
  FISH Conc: 7.7 × 10^4 cells/mL
[3]; 4 hour, no protease
  FISH Conc: <1 × 10^3 cells/mL
  Positive Detection?: No (A detection threshold of 1×10^4 cells per mL was used as the threshold for a positive call in the FISH assay)
[3]; [11]
  Positive Detection?: Yes (A detection threshold of 1×10^4 cells per mL was used as the threshold for a positive call in the FISH assay)
[3]; [12]
  FISH Conc: 1.7 × 10^4 cells/mL
[4]; 1 hour, no protease
  FISH Conc: 1.4 × 10^5 cells/mL
  Positive Detection?: Yes (A detection threshold of 1×10^4 cells per mL was used as the threshold for a positive call in the FISH assay)
[4]; [9]
  Positive Detection?: Yes (A detection threshold of 1×10^4 cells per mL was used as the threshold for a positive call in the FISH assay)
[4]; [10]
  FISH Conc: 1.1 × 10^5 cells/mL
[4]; 4 hour, no protease
  FISH Conc: 3.0 × 10^4 cells/mL
  Positive Detection?: Yes (A detection threshold of 1×10^4 cells per mL was used as the threshold for a positive call in the FISH assay)
[4]; [11]
  Positive Detection?: Yes (A detection threshold of 1×10^4 cells per mL was used as the threshold for a positive call in the FISH assay)
[4]; [12]
  FISH Conc: 3.0 × 10^4 cells/mL
[5]; 1 hour, no protease
  FISH Conc: 3.7 × 10^5 cells/mL
  Positive Detection?: Yes (A detection threshold of 1×10^4 cells per mL was used as the threshold for a positive call in the FISH assay)
[5]; [9]
  Positive Detection?: Yes (A detection threshold of 1×10^4 cells per mL was used as the threshold for a positive call in the FISH assay)
[5]; [10]
  FISH Conc: 5.3 × 10^4 cells/mL
[5]; 4 hour, no protease
  FISH Conc: 3.0 × 10^5 cells/mL
  Positive Detection?: Yes (A detection threshold of 1×10^4 cells per mL was used as the threshold for a positive call in the FISH assay)
[5]; [11]
  Positive Detection?: No (A detection threshold of 1×10^4 cells per mL was used as the threshold for a positive call in the FISH assay)
[5]; [12]
  FISH Conc: 6.7 × 10^3 cells/mL
[6]; [13]
  Conc of live bacteria by plating: 60 cfu/mL
[6]; [14]
  Killing by plating, in words: substantially killed
[7]; [13]
  Conc of live bacteria by plating: 20 cfu/mL
[7]; [14]
  Killing by plating, in words: substantially killed
[8]; [13]
  Conc of live bacteria by plating: 10 cfu/mL
[8]; [14]
  Killing by plating, in words: substantially killed
